ChEMBL document CHEMBL1201862, “PubChem BioAssay data set” (2004)
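Step 1: Grow cells in 96-well plates. Step 2: Expose to compound for 48 hours at 5 concentrations. Step 3: Interpolate endpoints linearly; if unreached, use highest concentration. At the GI50, growth is halved.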 The source made the active and inactive calls. No stated cut-off is given here; in the data, active = GI50 up to about 1.1 µM and inactive = higher.

Tests used:
Test in all cases: growth of human tumour cells (NCI), 48 h
[1] = tested on: A498
[2] = tested on: A549
[3] = tested on: EKVX
[4] = tested on: HCC 2998
[5] = tested on: HL-60
[6] = tested on: HOP-92
[7] = tested on: M14
[8] = tested on: MOLT-4
[9] = tested on: Malme-3M
[10] = tested on: NCI-H226
[11] = tested on: SK-MEL-28
[12] = tested on: TK-10
[13] = tested on: UACC-257
[14] = tested on: UO-31
[15] = tested on: OVCAR-4
[16] = tested on: OVCAR-3
[17] = tested on: DU-145
[18] = tested on: MDA-MB-231
[19] = tested on: PC-3

Measured: GI50

O=C1CCC(Cl)=CC2CCCN12 (stereo not given)
inactive: [1] > 100 µM | [2] > 100 µM | [3] > 100 µM | [4] > 100 µM | [5] > 100 µM | [6] > 100 µM | [7] > 100 µM | [8] > 100 µM | [9] > 100 µM | [10] > 100 µM | [11] > 100 µM | [12] > 100 µM | [13] > 100 µM | [14] > 100 µM

C=CCNC(=S)OCCCCCCCCCC
inactive: [1] 18.5 µM | [2] 25.3 µM | [3] 23.8 µM | [4] 17.7 µM | [5] 16.4 µM | [7] 18.1 µM | [8] 13.9 µM | [9] 19.6 µM | [15] 16.5 µM | [11] 23.6 µM | [12] 11.7 µM | [13] 18.8 µM | [14] 12.3 µM

CC1C=CC(C(N)C(=O)O)O1 (stereo not given)
inactive: [1] > 100 µM | [2] > 100 µM | [3] > 100 µM | [4] > 100 µM | [5] > 100 µM | [6] > 100 µM | [7] > 100 µM | [8] > 100 µM | [9] > 100 µM | [10] > 100 µM | [16] > 100 µM | [15] > 100 µM | [11] > 100 µM | [14] > 100 µM

CCc1cccc(C(C)CC)c1NC(=O)CC1C(=O)Nc2ccccc2S1(=O)=O (stereo not given)
inactive: [1] 33.6 µM | [2] 24.8 µM | [3] 7.05 µM | [4] 6.17 µM | [7] 41.4 µM | [8] 11.8 µM | [9] 36.5 µM | [16] 13.6 µM | [15] 12.8 µM | [11] 53.2 µM | [12] 28.7 µM | [13] 42.3 µM | [14] 34 µM

O=C(CC1C(=O)Nc2ccccc2[S+]1[O-])Nc1cc(Cl)ccc1Cl (stereo not given)
inactive: [1] > 100 µM | [2] > 100 µM | [3] > 100 µM | [4] > 100 µM | [5] > 100 µM | [6] > 100 µM | [7] > 100 µM | [8] > 100 µM | [9] > 100 µM | [10] > 100 µM | [16] > 100 µM | [11] > 100 µM | [12] > 100 µM | [13] > 100 µM | [14] > 100 µM

FC(F)(F)c1cccc2ns[s+]c12
inactive: [1] > 100 µM | [2] > 100 µM | [3] > 100 µM | [4] > 100 µM | [5] > 100 µM | [7] > 100 µM | [8] > 100 µM | [9] > 100 µM | [10] > 100 µM | [16] > 100 µM | [15] > 100 µM | [11] > 100 µM | [12] > 100 µM | [13] > 100 µM | [14] > 100 µM

O=C1Nc2ccccc2/C1=N/Nc1nc(-c2ccc(Cl)c(Cl)c2)cs1
active: [5] 0.232 µM
inactive: [2] > 100 µM | [17] 92 µM | [3] > 100 µM | [4] > 100 µM | [6] > 100 µM | [7] 78.5 µM | [18] > 100 µM | [8] 16 µM | [10] > 100 µM | [16] 4.75 µM | [15] 77.6 µM | [19] 24 µM | [11] > 100 µM | [12] 66.2 µM | [13] > 100 µM | [14] 7.01 µM

CC(=O)OCC1OC(N=[N+]=[N-])C(OC(C)=O)C(OC(C)=O)C1OC1OC(COC(C)=O)C(OC(C)=O)C(OC(C)=O)C1OC(C)=O (stereo not given)
inactive: [1] > 100 µM | [2] > 100 µM | [3] > 100 µM | [4] > 100 µM | [5] > 100 µM | [7] > 100 µM | [8] > 100 µM | [9] > 100 µM | [16] > 100 µM | [15] > 100 µM | [11] > 100 µM | [12] 81.5 µM | [13] > 100 µM | [14] > 100 µM

CCOc1nc(OCC)nc(-c2cccn2-c2ccccc2)n1
inactive: [1] 47.4 µM | [2] 37.1 µM | [3] 38.2 µM | [4] 32.3 µM | [5] 21.7 µM | [7] 38.3 µM | [8] 17.7 µM | [9] 21.4 µM | [10] 32.7 µM | [16] 20.7 µM | [15] 25.8 µM | [11] 35.4 µM | [12] 23 µM | [13] 40.5 µM | [14] 22.1 µM
